In ChEMBL document CHEMBL4828726, “Modification of 5-methylphenanthridium from benzothiazoles to indoles as potent FtsZ inhibitors: Broadening the antibacterial spectrum toward vancomycin-resistant enterococci” (Eur J Med Chem, 2021):
≈ marks a conversion by molar mass, not a printed value.

How the values were obtained:
Format in all cases: functional
Staphylococcus aureus [1] = assay: Antibacterial activity against clinical isolate Staphylococcus aureus C1 assessed as inhibition of bacterial growth measured after 20 hrs by two-fold microdilution assay
[2] = test system: Staphylococcus epidermidis; assay: Antibacterial activity against penicillin-resistant Staphylococcus epidermidis assessed as inhibition of bacterial growth measured after 20 hrs by two-fold microdilution assay
Streptococcus pyogenes [3] = assay: Antibacterial activity against erythromycin-susceptible Streptococcus pyogenes assessed as inhibition of bacterial growth measured after 20 hrs by two-fold microdilution assay
Enterococcus faecalis [4] = assay: Antibacterial activity against Vancomycin-susceptible Enterococcus faecalis ATCC 29212 assessed as inhibition of bacterial growth measured after 20 hrs by two-fold microdilution assay
Staphylococcus aureus [5] = assay: Antibacterial activity against penicillin-resistant Staphylococcus aureus ATCC 31007 assessed as inhibition of bacterial growth measured after 20 hrs by two-fold microdilution assay
Enterococcus faecium [6] = assay: Antibacterial activity against Vancomycin-susceptible Enterococcus faecium ATCC 19434 assessed as inhibition of bacterial growth measured after 20 hrs by two-fold microdilution assay
Pseudomonas aeruginosa = assay: Antibacterial activity against penicillin-susceptible Pseudomonas aeruginosa ATCC 27853 assessed as inhibition of bacterial growth measured after 20 hrs by two-fold microdilution assay
Escherichia coli = assay: Antibacterial activity against penicillin-susceptible Escherichia coli ATCC 25922 assessed as inhibition of bacterial growth measured after 20 hrs by two-fold microdilution assay
Enterococcus faecium [7] = assay: Antibacterial activity against Vancomycin-resistant Enterococcus faecium ATCC 51559 assessed as inhibition of bacterial growth measured after 20 hrs by two-fold microdilution assay
Bacillus subtilis = assay: Antibacterial activity against penicillin-susceptible Bacillus subtilis ATCC 9372 assessed as inhibition of bacterial growth measured after 20 hrs by two-fold microdilution assay
Streptococcus pyogenes [8] = assay: Antibacterial activity against erythromycin-resistant Streptococcus pyogenes assessed as inhibition of bacterial growth measured after 20 hrs by two-fold microdilution assay
Bacillus pumilus = assay: Antibacterial activity against penicillin-susceptible Bacillus pumilus CMCC63202 assessed as inhibition of bacterial growth measured after 20 hrs by two-fold microdilution assay
Staphylococcus aureus [9] = assay: Antibacterial activity against methicillin-resistant Staphylococcus aureus ATCC43300 assessed as inhibition of bacterial growth measured after 20 hrs by two-fold microdilution assay
Staphylococcus aureus [10] = assay: Antibacterial activity against erythromycin-susceptible Staphylococcus aureus ATCC 25923 assessed as inhibition of bacterial growth measured after 20 hrs by two-fold microdilution assay
Enterococcus faecalis [11] = assay: Antibacterial activity against Vancomycin-resistant Enterococcus faecalis ATCC 51299 assessed as inhibition of bacterial growth measured after 20 hrs by two-fold microdilution assay

SMILES | MIC (Staphylococcus aureus [1]) [µg/mL] | MIC [2] [µg/mL] | MIC (Streptococcus pyogenes [3]) [µg/mL] | MIC (Enterococcus faecalis [4]) [µg/mL] | MIC (Staphylococcus aureus [5]) [µg/mL] | MIC (Enterococcus faecium [6]) [µg/mL] | MIC (Pseudomonas aeruginosa) [µg/mL] | MIC (Escherichia coli) [µg/mL] | MIC (Enterococcus faecium [7]) [µg/mL] | MIC (Bacillus subtilis) [µg/mL] | MIC (Streptococcus pyogenes [8]) [µg/mL] | MIC (Bacillus pumilus) [µg/mL] | MIC (Staphylococcus aureus [9]) [µg/mL] | MIC (Staphylococcus aureus [10]) [µg/mL] | MIC (Enterococcus faecalis [11]) [µg/mL]
Cc1cccc2c[n+](C)c3ccc(-c4ccc5ccn(Cc6ccc(C(F)(F)F)cc6)c5c4)cc3c12.[Cl-] | 8 | 4 | 16 | 16 | 8 | 8 | > 64 | > 64 | 8 | 2 | 16 | 4 | 8 | 2 | 8
CCCCn1ccc2ccc(-c3ccc4c(c3)c3cc(C)ccc3c[n+]4C)cc21.[Cl-] | 4 | 16 | 8 | 8 | 8 | 8 | > 64 | > 64 | 8 | 4 | 16 | 8 | 8 | 2 | 16
O=C(O)c1cn(C2CC2)c2cc(N3CCNCC3)c(F)cc2c1=O [CIPROFLOXACIN] |  | > 64 |  | 32 (≈ 96.6 µM) | > 64 | > 64 |  |  | > 64 | 4 (≈ 12.1 µM) |  |  |  | 4 (≈ 12.1 µM) | > 64
CCn1ccc2ccc(-c3ccc4c(c3)c3c(C)cccc3c[n+]4C)cc21.[Cl-] | 8 | 16 | 8 |  | 32 |  | > 64 | > 64 |  | 4 | 8 | 16 | 8 | 2 | 
Cc1cccc2c[n+](C)c3ccc(-c4ccc5ccn(Cc6ccc(OC(F)(F)F)cc6)c5c4)cc3c12.[Cl-] | 8 | 8 | 16 | 8 | 8 | 4 |  | > 64 | 4 | 8 | 16 | 32 | 16 | 2 | 8
Cc1cccc2c[n+](C)c3ccc(-c4ccc5ccn(CC(C)C)c5c4)cc3c12.[Cl-] | 4 | 8 | 8 |  | 8 |  | > 64 | > 64 |  | 4 | 16 | 8 | 4 | 2 | 
